Results on five compounds are retold here after patent US7687508B2, “Cyclic derivatives as modulators of chemokine receptor activity” (Bristol-Myers Squibb Company, priority 2006, dated 2010).

Data set [1] deals with T1, human CCR2 (Homo sapiens, UniProt P41597).
T1 sequence (P41597 1-360 isoform P41597-2): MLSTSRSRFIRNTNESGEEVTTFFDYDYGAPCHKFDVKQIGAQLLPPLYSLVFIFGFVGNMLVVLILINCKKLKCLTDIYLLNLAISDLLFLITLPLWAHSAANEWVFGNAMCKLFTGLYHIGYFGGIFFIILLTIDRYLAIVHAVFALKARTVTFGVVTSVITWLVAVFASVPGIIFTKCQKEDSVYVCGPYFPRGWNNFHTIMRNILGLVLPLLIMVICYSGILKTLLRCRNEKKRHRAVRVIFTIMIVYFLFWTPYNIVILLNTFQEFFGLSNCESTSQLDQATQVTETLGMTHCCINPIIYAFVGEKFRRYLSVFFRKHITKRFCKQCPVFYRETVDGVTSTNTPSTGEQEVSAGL
Description: Human peripheral blood mononuclear cell binding (CCR2 binding), 125I-human MCP-1 tracer. To be noted: hPBMCs, 125I-MCP-1; figure in parentheses in the cell not copied (count of determinations); read-out: CCR2 Binding IC50. The arrangement: hPBMCs were isolated from human leukopak (Biological Specialty Inc.); endogenous in cells; host or cells: human peripheral blood mononuclear cells from leukopak (Biological Specialty Inc.). As for the experimental part: See also: Yoshimura et al., J. Immunol. 1990, 145, 292. The human CCR2 binding assay was established with human peripheral blood mononuclear cells (hPBMCs) using ^125I-human MCP-1 as the tracer ligand. hPBMCs were isolated from human leukopak (Biological Specialty Inc.) using a standard protocol with Ficoll-Hypaque (Mediatech Cellgro). Isolated hPBMCs were washed and diluted to 1×10^7/ml in binding buffer (RPMI-1640, 0.1% BSA, 20 mM Hepes, pH 7.4). ^125I-MCP-1 (NEN/Perk Elmer) was diluted to 0.45 nM in binding buffer. The compound was diluted in binding buffer at 3-fold the final concentrations used in the binding assay. The binding assay was performed using a 96-well filter plate (Millipore). Total ^125I-MCP-1 binding was assessed as follows: to each reaction of a total volume of 150 μl were added 5×10^5 cells, 0.15 nM […], and compound such that the final concentration ranged from 0 to 100 nM. The plate was incubated at room temperature for 30 minutes followed by three washes with RPMI-1640, 0.1% BSA, 0.4 M NaCl, 20 mM Hepes, pH 7.4 using a vacuum manifold filtration (Millipore). After washing, the plate was air-dried for 60 minutes at room temperature. This was followed by adding 25 μl of Microscint 20 into each well. The plate was sealed and counted on the Trilux for 1 minute. Non-specific binding was determined in the presence of 300 nM cold MCP-1 (PeproTech Inc.). Specific 1-MCP-1 was calculated as the difference between total and non-specific binding. All conditions were tested in duplicate.

The target of data set [2] is T1, human CCR2. Description: CCR2 chemotaxis (MCP-1-induced, THP-1 cells). Type of data set: cell-based. Set-up: hPBMCs were isolated from human leukopak (Biological Specialty Inc.); endogenous in cells; host or cells: human peripheral blood mononuclear cells from leukopak (Biological Specialty Inc.). The procedure:
The human CCR2 chemotaxis assay was conducted with the human monocytic cell line, THP-1. THP-1 cells were first labeled with the fluorescent dye Calcein-AM in phenol red-free, BSA-free RPMI-1640 (pH 7.4) at 37° C. for 30 minutes with gentle mixing every 15 minutes. The labeled cells were then washed and re-suspended at 1×10^5/ml in chemotaxis buffer (phenol red-free RPMI-1640, 0.1% BSA, pH 7.4). The test compound was diluted in chemotaxis buffer such that the final assay concentration ranged from 0.01 nM to 1 μM. […] To perform the assay, an equal volume of test compound dilutions was mixed with an equal volume of labeled THP-1 cells (Mixture 1), and an equal volume of test compound dilutions was mixed with an equal volume of diluted MCP-1 ligand (Mixture 2). Both mixtures were incubated independently at 37° C. for 10 minutes followed by gentle mixing. MCP-1-induced chemotaxis was then measured in a chemotaxis plate (Becton Dickinson) by placing 50 μl of Mixture 1 in the top chamber and 225 μl of Mixture 2 in the bottom chamber. The plate was covered with a lid and incubated at 37° C. for 30 minutes. 30 minutes later, the plate was read on a Cytofluor. All conditions were tested in duplicate. […] The inhibition achieved by graded concentrations of test compound was calculated as a percentage of the compound-free MCP-1 control.

Data set [3] has as its target human cardiac sodium channel, SCN5A (Nav1.5) (Homo sapiens, UniProt Q14524). Description: Sodium channel patch clamp (whole-cell, HEK-293). The following applies: HEK-293 cells expressing human cardiac sodium channel SCN5A, 30,000 nM, read-out: Na+ channel patch clamp (% inhibition). Type of data set: cell-based. As for the experimental part:
The compound was tested at a protein-free aqueous buffer. For determining steady state inhibition, sodium currents were elicited every 5 seconds using the following voltage protocol: cells were held at a potential of −90 mV and stepped to −20 mV for 60 ms. Effects were calculated by measuring inhibition of peak current during the test pulse to −20 mV. Rate-dependence of inhibition was assessed by stimulation at frequencies of 1 Hz and 4 Hz.
(The patch-clamp technique gives a direct electrical read-out from membranes.)

The target in data set [4] is T2, hERG (Homo sapiens, UniProt Q12809).
T2 construct: expressed in transfected cells
Description: hERG flux (Tl+ flux, FLIPR) in HEK293 cells. The format is cell-based. To be noted: HEK293 cells stably expressing hERG. As for the experimental part: HEK293 cells stably-expressing hERG channels were grown (37° C., 5% CO2) in Dulbecco's Modified Eagle's Media supplemented with 10% Sigma fetal bovine serum, non-essential amino acids, 2 mM L-glutamine and 500 μg/ml G418, at incubator.
A 2 mM stock of BTC-AM dye (Molecular Probes, Eugene, Oreg.) was prepared in 100% DMSO and then added 1:1 to 10% (w/v) pluronic acid in DMSO on the day of assay. The dye was then diluted in hERG external EP buffer (140 mM NaCl, 4.0 mM KCl, 1.8 mM CaCl2, 1.0 mM MgCl2, 10 mM HEPES, pH 7.3 and 10 mM glucose; all buffer components obtained from Sigma Chemical). […] Cells are incubated at 21° C. for 45 minutes.
These compounds were then serially-diluted at a 1:2 ratio in DMSO in columns 1-10 and 11-20 of a 384-well plate. Assay-ready plates were generated by stamping 2.5 μl from the DMSO serially diluted plate, which was prepared on the Velocity 11 BioCel. Aqueous plates were created by adding 48 μl of EP buffer and then were diluted 30-45 minutes before the assay was read on the FLIPR. […] Final DMSO concentration in the assay is 1%. Assay-ready aqueous plates were prepared and diluted on a Cybio liquid handler.
Data collection proceeded every second for 48 seconds, and then continued every three seconds for an additional 2 minutes.
The dynamic range of the assay was determined from blanks and totals wells. The totals wells (columns 21 and 22) define maximal hERG activation for the plate (no test compound present), and the blanks wells (columns 23 and 24) define 100% hERG inhibition. […] Raw data points in each sample well were first corrected for cell/signal variation, negative control (blanks) background, and normalized to the positive controls (totals) using the online FLIPR software. Test compound concentration response curves for the hERG Tl^+ flux data were then fit using Excel Fit (ID Business Solutions Limited, Surrey, UK) with a single-site logistic equation, Y=A+((B−A)/1+((C/X)^D))) where A=maximal inhibition. Data were analyzed by fitting maximum amplitudes of change in fluorescence for Tl^+ flux for a given condition of test compound.

In data set [5] the target is T2, hERG. Description: hERG patch clamp (whole-cell, HEK-293). The format is cell-based. To be noted: for inhibition at 10000 nM: pH 7.4, 10,000 nM; for inhibition at 30000 nM: pH 7.4, 30,000 nM. Background: hERG is a cardiac potassium channel; its block is linked to QT prolongation.
Data set [6] in a line: Parallel Artificial Membrane Permeability Assay (PAMPA). Type of data set: in vitro ADME. The following applies: apical and basolateral pH 7.4. As for the experimental part: All experiments are conducted in triplicate determinations.
On the technique in general: In PAMPA a lipid-coated filter parts donor from acceptor wells.

The nature of data set [7]: Single-dose pharmacokinetics in rats. Type of data set: in vivo. To be noted: male, Sprague-Dawley, plasma, rat, dose per compound (mg/kg); for AUC: PO. The procedure: (1500-2000×g) to obtain plasma. […] Plasma samples, obtained by centrifugation at 4° C.
Data set [8] can be described thus: Single-dose pharmacokinetics in monkeys. The format is in vivo. The following applies: male, cynomolgus monkey, plasma, dose per compound (mg/kg); for AUC: PO. An excerpt: (1500-2000×g) to obtain plasma.

Sequence of human cardiac sodium channel, SCN5A (Nav1.5) (Q14524 whole entry): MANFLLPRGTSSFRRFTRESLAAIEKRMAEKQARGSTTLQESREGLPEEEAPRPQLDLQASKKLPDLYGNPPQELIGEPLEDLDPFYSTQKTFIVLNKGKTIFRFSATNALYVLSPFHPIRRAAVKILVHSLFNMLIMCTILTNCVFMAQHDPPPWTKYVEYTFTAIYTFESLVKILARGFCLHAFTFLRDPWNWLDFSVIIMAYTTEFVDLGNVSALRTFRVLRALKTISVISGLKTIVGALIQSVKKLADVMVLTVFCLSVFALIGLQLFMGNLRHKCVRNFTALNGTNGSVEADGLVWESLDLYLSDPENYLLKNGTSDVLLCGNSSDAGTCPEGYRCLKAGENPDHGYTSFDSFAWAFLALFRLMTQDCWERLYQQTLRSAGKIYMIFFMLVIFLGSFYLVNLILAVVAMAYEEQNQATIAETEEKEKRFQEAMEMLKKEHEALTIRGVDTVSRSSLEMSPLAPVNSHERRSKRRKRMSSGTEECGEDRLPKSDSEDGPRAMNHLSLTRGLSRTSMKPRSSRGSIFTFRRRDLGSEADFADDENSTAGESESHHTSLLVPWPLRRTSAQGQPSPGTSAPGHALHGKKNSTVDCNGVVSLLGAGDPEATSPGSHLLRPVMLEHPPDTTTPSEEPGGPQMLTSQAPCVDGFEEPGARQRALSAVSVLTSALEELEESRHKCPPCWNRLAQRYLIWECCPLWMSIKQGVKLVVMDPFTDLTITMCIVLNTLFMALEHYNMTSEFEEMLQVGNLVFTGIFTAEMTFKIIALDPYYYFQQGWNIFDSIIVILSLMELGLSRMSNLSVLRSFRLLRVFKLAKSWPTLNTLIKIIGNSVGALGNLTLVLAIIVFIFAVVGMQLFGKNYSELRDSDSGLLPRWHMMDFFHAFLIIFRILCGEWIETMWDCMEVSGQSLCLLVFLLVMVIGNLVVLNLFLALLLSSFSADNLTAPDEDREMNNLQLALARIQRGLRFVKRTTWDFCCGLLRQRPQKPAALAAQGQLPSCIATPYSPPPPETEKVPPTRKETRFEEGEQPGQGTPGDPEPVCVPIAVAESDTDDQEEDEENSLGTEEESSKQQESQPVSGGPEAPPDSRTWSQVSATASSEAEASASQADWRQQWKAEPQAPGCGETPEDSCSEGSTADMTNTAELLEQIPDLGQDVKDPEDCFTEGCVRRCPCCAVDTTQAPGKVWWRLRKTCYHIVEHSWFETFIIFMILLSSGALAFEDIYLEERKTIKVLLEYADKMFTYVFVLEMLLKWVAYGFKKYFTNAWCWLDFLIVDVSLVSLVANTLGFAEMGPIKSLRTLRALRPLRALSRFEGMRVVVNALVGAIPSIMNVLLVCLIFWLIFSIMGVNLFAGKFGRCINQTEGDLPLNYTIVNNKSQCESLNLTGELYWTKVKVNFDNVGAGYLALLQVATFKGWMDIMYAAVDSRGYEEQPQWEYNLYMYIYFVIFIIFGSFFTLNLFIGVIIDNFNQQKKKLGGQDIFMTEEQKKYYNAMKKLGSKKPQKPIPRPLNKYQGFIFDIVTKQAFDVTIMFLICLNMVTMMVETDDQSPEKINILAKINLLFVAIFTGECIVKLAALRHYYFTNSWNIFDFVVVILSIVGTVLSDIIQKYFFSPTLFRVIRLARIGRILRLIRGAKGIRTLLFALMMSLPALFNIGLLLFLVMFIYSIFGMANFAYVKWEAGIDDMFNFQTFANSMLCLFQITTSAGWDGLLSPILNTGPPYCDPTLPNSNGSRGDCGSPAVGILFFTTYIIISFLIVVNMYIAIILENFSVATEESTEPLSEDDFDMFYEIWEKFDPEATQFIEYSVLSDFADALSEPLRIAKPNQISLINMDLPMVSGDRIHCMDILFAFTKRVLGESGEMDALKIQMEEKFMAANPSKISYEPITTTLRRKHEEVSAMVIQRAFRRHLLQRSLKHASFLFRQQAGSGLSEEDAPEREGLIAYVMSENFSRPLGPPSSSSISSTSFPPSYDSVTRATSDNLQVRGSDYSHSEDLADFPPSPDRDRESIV
T2 sequence (Q12809 whole entry): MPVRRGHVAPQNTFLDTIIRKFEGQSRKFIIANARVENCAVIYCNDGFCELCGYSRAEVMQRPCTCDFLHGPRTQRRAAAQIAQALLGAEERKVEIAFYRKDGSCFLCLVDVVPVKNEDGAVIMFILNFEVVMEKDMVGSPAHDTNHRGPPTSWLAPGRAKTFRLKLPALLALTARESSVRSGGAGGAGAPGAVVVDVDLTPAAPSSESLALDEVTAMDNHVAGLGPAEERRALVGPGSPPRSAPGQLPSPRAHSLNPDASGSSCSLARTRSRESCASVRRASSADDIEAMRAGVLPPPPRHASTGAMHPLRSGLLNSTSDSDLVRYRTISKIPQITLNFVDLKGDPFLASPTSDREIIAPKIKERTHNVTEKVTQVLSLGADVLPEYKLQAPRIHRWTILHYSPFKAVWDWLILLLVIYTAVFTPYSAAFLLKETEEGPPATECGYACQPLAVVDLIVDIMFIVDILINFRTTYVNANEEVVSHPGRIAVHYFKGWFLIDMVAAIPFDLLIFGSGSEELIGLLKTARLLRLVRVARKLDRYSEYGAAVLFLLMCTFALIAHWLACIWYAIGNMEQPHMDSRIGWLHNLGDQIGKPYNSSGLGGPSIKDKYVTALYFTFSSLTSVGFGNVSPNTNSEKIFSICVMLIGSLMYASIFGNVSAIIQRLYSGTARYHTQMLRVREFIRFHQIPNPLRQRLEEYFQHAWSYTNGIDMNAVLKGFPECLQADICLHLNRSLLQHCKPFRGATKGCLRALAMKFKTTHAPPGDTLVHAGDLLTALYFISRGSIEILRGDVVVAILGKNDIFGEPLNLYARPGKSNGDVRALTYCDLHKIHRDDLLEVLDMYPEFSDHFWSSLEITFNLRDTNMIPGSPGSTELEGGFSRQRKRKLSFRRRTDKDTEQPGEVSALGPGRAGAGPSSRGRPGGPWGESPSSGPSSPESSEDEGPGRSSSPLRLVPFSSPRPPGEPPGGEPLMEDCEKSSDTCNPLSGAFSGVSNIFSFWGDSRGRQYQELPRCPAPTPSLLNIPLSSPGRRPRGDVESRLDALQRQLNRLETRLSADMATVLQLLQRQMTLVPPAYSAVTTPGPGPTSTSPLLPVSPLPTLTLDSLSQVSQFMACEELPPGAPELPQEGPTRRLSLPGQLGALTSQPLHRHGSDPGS

Take `CC(=O)N[C@@H]1C[C@H](N(C)C(C)C)CC[C@@H]1N1CC[C@H](Nc2ncnc3cnc(C(C)(C)C)nc23)C1=O` [Example 1, N-((1R,2S,5R)-2-((3S)-3-((6-tert-butylpyrimido[5,4-d]pyrimidin-4-yl)amino)-2-oxo-1-pyrrolidinyl)-5-(isopropyl(methyl)amino)cyclohexyl)acetamide]: the IC50 at human CCR2 [1] was 3.34 ± 0.32 nM; at human CCR2 [2], 3.85 ± 0.36 nM; against hERG [4] it was above 80000 nM. Further, the inhibition at 30000 nM amounted to 13% in data set [3] and 17% on hERG [5]. For the same compound, at hERG [5], the inhibition at 10000 nM is 8%. This compound gave a Papp at 4 h, 100 µM in data set [6] of 18.7 ×10⁻⁶ cm/s.
As for `CC(C)N(C)[C@@H]1CC[C@H](N2CC[C@H](Nc3ncnc4ccc(C(F)(F)F)cc34)C2=O)[C@H](NC=O)C1` [Example 7, N-((1R,2S,5R)-5-(isopropyl(methyl)amino)-2-((S)-2-oxo-3-(6-(trifluoromethyl)quinazolin-4-ylamino)pyrrolidin-1-yl)cyclohexyl)formamide], the IC50 on human CCR2 [1] is 1.72 ± 0.54 nM; against human CCR2 [2] it was 2.85 nM; against hERG [4], above 80000 nM. Besides, the inhibition at 30000 nM in data set [3] is 10%; against hERG [5], 29%. Moreover, on hERG [5], testing at 10000 nM gave an inhibition of 12%. The Papp at 4 h, 100 µM in data set [6] was found to be 32.6 ± 22.1 ×10⁻⁶ cm/s.
Consider `CC(=O)N[C@@H]1C[C@H](N(C)C)CC[C@@H]1N1CC[C@H](Nc2ncnc3ccc(C(F)(F)F)cc23)C1=O` [Example 8, N-((1R,2S,5R)-5-(dimethylamino)-2-((3S)-2-oxo-3-((6-(trifluoromethyl)-4-quinazolinyl)amino)-1-pyrrolidinyl)cyclohexyl)acetamide], for which the IC50 at human CCR2 [1] is 3.58 ± 0.78 nM; at human CCR2 [2], 4.09 ± 1.21 nM; against hERG [4], above 80000 nM. For the same compound, the values for the inhibition at 30000 nM (in data set [3]; against hERG [5]) were 11% and 37%, respectively. Further, the AUC in data set [7] is 7.28 µM·h; in data set [8], 0.558 µM·h. In addition, at hERG [5], the inhibition at 10000 nM was 18%.
As for `CC(=O)N[C@@H]1C[C@H](N(C)C(C)C)CC[C@@H]1N1CC[C@H](NC(=O)c2cccc(C(C)(C)C)n2)C1=O` [Example 9, N-((3S)-1-((1S,2R,4R)-2-acetamido-4-(isopropyl(methyl)amino)cyclohexyl)-2-oxo-3-pyrrolidinyl)-6-tert-butyl-2-pyridinecarboxamide], the IC50 at human CCR2 [1] is 1.69 ± 0.67 nM; against human CCR2 [2], 0.35 nM; at hERG [4], above 80000 nM. Moreover, the values for the inhibition at 30000 nM (in data set [3]; against hERG [5]) were 6% and 41%, respectively. Also, at hERG [5], the inhibition at 10000 nM was 26%. The same compound showed a Papp at 4 h, 100 µM in data set [6] of 26.6 ×10⁻⁶ cm/s.
On to `CCC(=O)N[C@@H]1C[C@H](N)CC[C@@H]1N1CC[C@H](Nc2ncnc3ccc(C(F)(F)F)cc23)C1=O` [Example 10, N-((1R,2S,5R)-5-amino-2-((3S)-2-oxo-3-((6-(trifluoromethyl)-4-quinazolinyl)amino)-1-pyrrolidinyl)cyclohexyl)propanamide], for which the IC50 on human CCR2 [1] was 5.18 ± 1.98 nM; against human CCR2 [2], 1.6 ± 0.42 nM; against hERG [4], above 80000 nM. Also, the results for the inhibition at 30000 nM (in data set [3]; on hERG [5]) were 35% and 33%, respectively. The clearance stood at 45 mL/min/kg in data set [7] (IV) and 21 mL/min/kg in data set [8] (IV). The AUC was 4.23 µM·h in data set [7] and 1.08 µM·h in data set [8]. Moreover, the bioavailability in data set [7] (oral bioavailability) is 57%; in data set [8] (oral bioavailability), 67%. The same compound gave a Papp at 4 h, 100 µM in data set [6] of 22.8 ×10⁻⁶ cm/s.

One may read the IC50 as the point on the concentration scale where inhibition reaches its midpoint. One may read the inhibition as the change of the read-out against control, counted positive when it falls. As a reminder, the Papp is the rate of passage across a membrane or cell layer, normalised by area and donor concentration. Broadly, the AUC is concentration integrated over time. The low end stands for low exposure, the high end for high exposure. In general, clearance refers to a measure of how efficiently the substance is removed, as volume per time. In general, bioavailability refers to dose-corrected exposure relative to a reference, in per cent. Higher therefore signals good availability.
